According to patent US20230085307A1, “PYRIDAZINONE COMPOUND AND HERBICIDE” (NISSAN CHEMICAL CORPORATION, priority 2019, published 2023):

How the values were obtained:
velvetleaf [1] = test: Test Example 4: herbicidal effect by soil treatment (Table 19, symbol M); assay type: in vivo, velvetleaf (Abutilon theophrasti); details: AAH 178 g/ha
Method in brief: (§1)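 Seeds were sown in sterilized diluvial soil and covered with about 1.5 cm of soil. An emulsion formulation diluted with water to a predetermined herbicide amount was sprayed evenly onto the soil surface. Plants grew in a greenhouse at 25° C. to 30° C., and the effect was scored three weeks after application using criteria from an earlier test.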

barnyard grass [2] = test: Test Example 5: herbicidal effect by foliage application, plastic box (Table 20, symbol H); assay type: in vivo, barnyard grass (Echinochloa crus-galli); details: foliage application, 178 g/ha, 3 weeks after application
Method in brief: (§2)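 Plants sown in sterilized diluvial soil and grown 14 days in a greenhouse at 25° C to 30° C, then sprayed on the foliage with the compound's emulsion diluted in water to a predetermined herbicide amount. Injury to weeds and crops scored three weeks after application on a visual rating scale.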

wild oat [3] = test: Test Example 5: herbicidal effect by foliage application, plastic box (Table 20, symbol I); assay type: in vivo, wild oat (Avena fatua); details: foliage application, 178 g/ha, 3 weeks after application
Method in brief: as §2

lambsquarters [4] = test: Test Example 5: herbicidal effect by foliage application, plastic box (Table 20, symbol O); assay type: in vivo, lambsquarters (Chenopodium album); details: foliage application, 178 g/ha, 3 weeks after application
Method in brief: as §2

lambsquarters [5] = test: Test Example 4: herbicidal effect by soil treatment (Table 19, symbol O); assay type: in vivo, lambsquarters (Chenopodium album); details: AAH 178 g/ha
Method in brief: as §1

barnyard grass [6] = test: Test Example 4: herbicidal effect by soil treatment (Table 19, symbol H); assay type: in vivo, barnyard grass (Echinochloa crus-galli); details: AAH 178 g/ha
Method in brief: as §1

late watergrass = test: Test Example 2: herbicidal activity, application during weed generation under submerged conditions (Table 17, symbol A); assay type: in vivo, late watergrass (Echinochloa oryzicola); details: AAH 178 g/ha; application during weed generation, submerged conditions
Method in brief: (§3)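 3-wk visual-criteria score after one water-surface dose. Emulsion formulation, water-diluted to set rate; applied at 1–2 leaf stage; alluvial soil, 4 cm standing water; seeds co-sown; greenhouse 25–30° C.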

green foxtail [7] = test: Test Example 5: herbicidal effect by foliage application, plastic box (Table 20, symbol G); assay type: in vivo, green foxtail (Setaria viridis); details: foliage application, 178 g/ha, 3 weeks after application
Method in brief: as §2

windgrass [8] = test: Test Example 5: herbicidal effect by foliage application, plastic box (Table 20, symbol L); assay type: in vivo, windgrass (Apera spica-venti); details: foliage application, 178 g/ha, 3 weeks after application
Method in brief: as §2

barnyard grass [9] = test: Test Example 3: herbicidal effect by foliage application, Wagner pot (Table 18, symbol H); assay type: in vivo, barnyard grass (Echinochloa crus-galli); details: 178 g/ha
Method in brief: (§4)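 Plants were sown in alluvial soil held under 0.1–0.5 cm standing water and grown 14 days in a greenhouse at 25–30 °C. An emulsifiable formulation, water-diluted to the set dose, was then sprayed onto the foliage, and effects were scored three weeks later using previously defined criteria.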

southern crabgrass [10] = test: Test Example 5: herbicidal effect by foliage application, plastic box (Table 20, symbol F); assay type: in vivo, southern crabgrass (Digitaria ciliaris); details: foliage application, 178 g/ha, 3 weeks after application
Method in brief: as §2

blackgrass [11] = test: Test Example 5: herbicidal effect by foliage application, plastic box (Table 20, symbol J); assay type: in vivo, blackgrass (Alopecurus myosuroides); details: foliage application, 178 g/ha, 3 weeks after application
Method in brief: as §2

green foxtail [12] = test: Test Example 4: herbicidal effect by soil treatment (Table 19, symbol G); assay type: in vivo, green foxtail (Setaria viridis); details: AAH 178 g/ha
Method in brief: as §1

rice flat sedge = test: Test Example 3: herbicidal effect by foliage application, Wagner pot (Table 18, symbol E); assay type: in vivo, rice flat sedge (Cyperus iria); details: 178 g/ha
Method in brief: as §4

southern crabgrass [13] = test: Test Example 4: herbicidal effect by soil treatment (Table 19, symbol F); assay type: in vivo, southern crabgrass (Digitaria ciliaris); details: AAH 178 g/ha
Method in brief: as §1

Italian ryegrass [14] = test: Test Example 4: herbicidal effect by soil treatment (Table 19, symbol K); assay type: in vivo, Italian ryegrass (Lolium multiflorum); details: AAH 178 g/ha
Method in brief: as §1

wild oat [15] = test: Test Example 4: herbicidal effect by soil treatment (Table 19, symbol I); assay type: in vivo, wild oat (Avena fatua); details: AAH 178 g/ha
Method in brief: as §1

redroot pigweed = test: Test Example 4: herbicidal effect by soil treatment (Table 19, symbol N); assay type: in vivo, redroot pigweed (Amaranthus retroflexus); details: AAH 178 g/ha
Method in brief: as §1

chickweed = test: Test Example 4: herbicidal effect by soil treatment (Table 19, symbol P); assay type: in vivo, common chickweed (Stellaria media); details: AAH 178 g/ha
Method in brief: as §1

false cleavers = test: Test Example 4: herbicidal effect by soil treatment (Table 19, symbol Q); assay type: in vivo, false cleavers (Galium spurium); details: AAH 178 g/ha
Method in brief: as §1

persian speedwell [16] = test: Test Example 5: herbicidal effect by foliage application, plastic box (Table 20, symbol R); assay type: in vivo, Persian speedwell (Veronica persica); details: foliage application, 178 g/ha, 3 weeks after application
Method in brief: as §2

oval-leafed pondweed = test: Test Example 2: herbicidal activity, application during weed generation under submerged conditions (Table 17, symbol C); assay type: in vivo, oval-leafed pondweed (Monochoria vaginalis); details: AAH 178 g/ha; application during weed generation, submerged conditions
Method in brief: as §3

Japanese bulrush = test: Test Example 2: herbicidal activity, application during weed generation under submerged conditions (Table 17, symbol B); assay type: in vivo, Japanese bulrush (Schoenoplectus juncoides); details: AAH 178 g/ha; application during weed generation, submerged conditions
Method in brief: as §3

Chinese sprangletop = test: Test Example 3: herbicidal effect by foliage application, Wagner pot (Table 18, symbol D); assay type: in vivo, chinese sprangletop (Leptochloa chinensis); details: 178 g/ha
Method in brief: as §4

windgrass [17] = test: Test Example 4: herbicidal effect by soil treatment (Table 19, symbol L); assay type: in vivo, windgrass (Apera spica-venti); details: AAH 178 g/ha
Method in brief: as §1

persian speedwell [18] = test: Test Example 4: herbicidal effect by soil treatment (Table 19, symbol R); assay type: in vivo, Persian speedwell (Veronica persica); details: AAH 178 g/ha
Method in brief: as §1

Italian ryegrass [19] = test: Test Example 5: herbicidal effect by foliage application, plastic box (Table 20, symbol K); assay type: in vivo, Italian ryegrass (Lolium multiflorum); details: foliage application, 178 g/ha, 3 weeks after application
Method in brief: as §2

blackgrass [20] = test: Test Example 4: herbicidal effect by soil treatment (Table 19, symbol J); assay type: in vivo, blackgrass (Alopecurus myosuroides); details: AAH 178 g/ha
Method in brief: as §1

velvetleaf [21] = test: Test Example 5: herbicidal effect by foliage application, plastic box (Table 20, symbol M); assay type: in vivo, velvetleaf (Abutilon theophrasti); details: foliage application, 178 g/ha, 3 weeks after application
Method in brief: as §2

## COCCOCOc1c(C)nn(C)c(=O)c1-c1c(-c2ccc(OC(F)F)cc2)sc2ccccc12 [1-202]
Velvetleaf [1]
  M: velvetleaf, herbicidal effect rating: 2 (Herbicidal rate of 20% or more and less than 40%)
Barnyard grass [2]
  effect on barnyard grass (H): 4 (Herbicidal rate of 70% or more and less than 90%)
Wild oat [3]
  effect on wild oat (I): 0 (Herbicidal rate of 5% or less (almost no effect))
Lambsquarters [4]
  effect on lambsquarters (O): 5 (Herbicidal rate of 90% or more (almost completely withered))
Lambsquarters [5]
  O: lambsquarters, herbicidal effect rating: 4 (Herbicidal rate of 70% or more and less than 90%)
Barnyard grass [6]
  H: barnyard grass, herbicidal effect rating: 3 (Herbicidal rate of 40% or more and less than 70%)
Late watergrass
  herbicidal effect rating, A: late watergrass: 2 (Herbicidal rate of 20% or more and less than 40%)
Green foxtail [7]
  effect on green foxtail (G): 5 (Herbicidal rate of 90% or more (almost completely withered))
Windgrass [8]
  effect on windgrass (L): 0 (Herbicidal rate of 5% or less (almost no effect))
Barnyard grass [9]
  herbicidal effect on H (barnyard grass), rating 0-5: 5 (Herbicidal rate of 90% or more (almost completely withered))
Southern crabgrass [10]
  effect on southern crabgrass (F): 1 (Herbicidal rate of 5% or more and less than 20%)
Blackgrass [11]
  effect on blackgrass (J): 3 (Herbicidal rate of 40% or more and less than 70%)
Green foxtail [12]
  G: green foxtail, herbicidal effect rating: 4 (Herbicidal rate of 70% or more and less than 90%)
Rice flat sedge
  herbicidal effect on E (rice flat sedge), rating 0-5: 5 (Herbicidal rate of 90% or more (almost completely withered))
Southern crabgrass [13]
  F: southern crabgrass, herbicidal effect rating: 0 (Herbicidal rate of 5% or less (almost no effect))
Italian ryegrass [14]
  K: Italian ryegrass, herbicidal effect rating: 4 (Herbicidal rate of 70% or more and less than 90%)
Wild oat [15]
  I: wild oat, herbicidal effect rating: 0 (Herbicidal rate of 5% or less (almost no effect))
Redroot pigweed
  N: redroot pigweed, herbicidal effect rating: 5 (Herbicidal rate of 90% or more (almost completely withered))
chickweed
  P: chickweed, herbicidal effect rating: 3 (Herbicidal rate of 40% or more and less than 70%)
False cleavers
  Q: false cleavers, herbicidal effect rating: 3 (Herbicidal rate of 40% or more and less than 70%)
Persian speedwell [16]
  effect on persian speedwell (R): 5 (Herbicidal rate of 90% or more (almost completely withered))
oval-leafed pondweed
  herbicidal effect rating, C: oval-leafed pondweed: 0 (Herbicidal rate of 5% or less (almost no effect))
Japanese bulrush
  herbicidal effect rating, B: Japanese bulrush: 3 (Herbicidal rate of 40% or more and less than 70%)
Chinese sprangletop
  herbicidal effect on D (Chinese sprangletop), rating 0-5: 3 (Herbicidal rate of 40% or more and less than 70%)
Windgrass [17]
  L: windgrass, herbicidal effect rating: 0 (Herbicidal rate of 5% or less (almost no effect))
Persian speedwell [18]
  R: persian speedwell, herbicidal effect rating: 4 (Herbicidal rate of 70% or more and less than 90%)
Italian ryegrass [19]
  effect on Italian ryegrass (K): 5 (Herbicidal rate of 90% or more (almost completely withered))
Blackgrass [20]
  J: blackgrass, herbicidal effect rating: 0 (Herbicidal rate of 5% or less (almost no effect))
Velvetleaf [21]
  effect on velvetleaf (M): 5 (Herbicidal rate of 90% or more (almost completely withered))
